Where two headings read alike, the source gives them in different places.
How the values were obtained:
[1] = test system: Differentiated U937 cells; assay: MTT assay: cell viability; format: cell-based, human; settings: for d-U937 MTT Assay 4 h: 5% FCS; for d-U937 MTT Assay 24 h: 10% FCS
Procedure: Differentiated U937 cells were pre-incubated with each test compound under two protocols: the first for 4 hr in 5% FCS and the second in 10% FCS for 24 h. The supernatant was replaced with 200 μL of new media and 10 μL of MTT stock solution (5 mg/mL) was added to each well. After incubation for 1 hr the media were removed, 200 μL of DMSO was added to each well and the plates were shaken lightly for 1 hr prior to reading the absorbance at 550 nm. The percentage loss of cell viability was calculated for each well relative to vehicle (0.5% DMSO) treatment. Consequently an apparent increase in cell viability for drug treatment relative to vehicle is tabulated as a negative percentage.

[2] = test system: HRV16; assay: Rhinovirus-titre assay; format: cell-based, human rhinovirus; settings: Human rhinovirus sp.; for inhibition at 0.04 µg/mL: cell not marked b, test compounds 0.04 μg/mL per method (footnote b, 0.2 μg/mL)
Procedure: MRC5 cells (human lung fibroblast, ATCC) were infected with 1 MOI (multiplicity of infection of 1.0) of HRV16 and incubated for 1 hr at 33° C. with gentle shaking to stimulate adsorption. The cells were then washed with PBS, fresh media was added and the cells were incubated for a further 96 hr. The supernatant was collected and 10-fold serial dilutions of virus containing supernatant were prepared. All titrations were performed by infecting confluent Hela cell monolayers with serially diluted supernatant (10^−1-10^−5) and assessing the cytopathic effect by visual inspection 4 days after infection. The amount of virus required to infect 50% of Hela cells was calculated in each treatment as TCID50. Test compounds (0.04 μg/mL) were added 2 hr before HRV infection and 1 hr after infection when non-infected HRV was washed out. The anti-HRV activity of each test compound was determined as the difference of the log TCID50 of HRV16 in the presence of the compound with the log TCID50 of HRV16 in the absence of compound. […]

[3] = test system: TNFα release in d-U937 cells; assay: LPS-induced TNFα release in d-U937 cells; format: cell-based; settings: Homo sapiens, dU937, LPS 0.1 μg/mL, 4 hr, relative to 10 μg/mL BIRB796, read-out: d-U937 (LPS) TNFα REC50
Procedure: (§1) U937 cells, a human monocytic cell line, were differentiated to macrophage-type cells by incubation with phorbol myristate acetate (PMA; 100 ng/mL) for 48 to 72 hr, whereupon the cells become adherent. […] Coli: O111:B4, Sigma) for 4 hr. The supernatant was collected for determination of TNFα and IL-8 concentrations by sandwich ELISA (Duo-set, R&D systems). […] The relative 50% effective concentration (REC50) was determined from the resultant concentration-response curve. The inhibition of IL-8 production was calculated at each concentration of test compound by comparison with vehicle control.

[4] = test system: IL-8 release in d-U937 cells; assay: LPS-induced IL-8 release in d-U937 cells; format: cell-based; settings: Homo sapiens, read-out: d-U937 (LPS) IL-8 IC50
Procedure: as §1

[5] = test system: ICAM-1 expression in BEAS2B cells; assay: Poly I:C-induced ICAM-1 induction in BEAS2B cells; format: cell-based; settings: Homo sapiens, BEAS-2B, read-out: BEAS2B (polyIC) ICAM1 IC50
Procedure: Poly I:C (1 μg/mL) (Invivogene Ltd., San Diego, Calif.) was transfected into BEAS2B cells (human bronchial epithelial cells, ATCC) with Oligofectamine (Invitrogen, Carlsbad, Calif.). Cells were pre-incubated with final concentrations of test compounds for 2 hr and the level of ICAM1 expression on the cell surface was determined by cell-based ELISA. […] The cells were washed with PBS-Tween and incubated with the secondary antibody (HRP-conjugated anti-rabbit IgG, Dako Ltd., Glostrup, Denmark).

[6] = test system: TNFα release in THP-1 cells; assay: LPS-induced TNFα release in THP-1 cells; format: cell-based; settings: Homo sapiens, read-out: THP1 (LPS) TNFα IC50
Procedure: The inhibition of TNFα production was calculated at each concentration by comparison with vehicle control.

[7] = HRV16, read-out: HRV titre (inhibitory %): % inhibition observed vs. HRV16 infection control
[8] = dU937, d-U937 cells, LPS 0.1 μg/mL, 4 hr
[9] = BEAS2B cells, poly I:C 1 μg/mL, 18 hr

Row | Structure (SMILES) | d-U937 MTT Assay 4 h ([1]; 1 μg/ml) | d-U937 MTT Assay 24 h ([1]; 1 μg/ml) | inhibition at 0.2 µg/mL ([2]; HRV16, cell marked b: performed at 0.2 μg/mL, read-out: HRV titre (inhibitory %): % inhibition observed vs. HRV16 infection control) [%] | EC50 [3] [nM] | IC50 ([4]; dU937, 4 h) [nM] | d-U937 MTT Assay 4 h ([1]; performed at 10 μg/mL) | d-U937 MTT Assay 24 h ([1]; performed at 10 μg/mL) | inhibition at 0.2 µg/mL [2, 7] [%] | IC50 ([5]; 18 h) [nM] | IC50 ([6]; THP-1, 4 h) [nM] | IC50 [4, 8] [nM] | inhibition at 0.04 µg/mL [2, 7] [%] | IC50 ([6]; THP-1 cells, LPS 3 μg/mL, 4 hr) [nM] | IC50 [5, 9] [nM]
1 | COCC(=O)Nc1cc(Oc2ccc(NC(=O)Nc3cc(C(C)(C)C)nn3-c3ccc(C)cc3)c3ccccc23)ccn1 [Ref 2, N-(4-(4-(3-(3-tert-butyl-1-p-tolyl-1H-pyrazol-5-yl)ureido)naphthalen-1-yloxy)pyridin-2-yl)-2-methoxy acetamide, reference compound] | − (− and + indicate the result is below and above the no significant effect threshold, respectively (<30% inhibition at a concentration of 1 μg/ml)) | − (− and + indicate the result is below and above the no significant effect threshold, respectively (<30% inhibition at a concentration of 1 μg/ml)) | 100 | 0.13 | – | – | – | – | – | – | – | – | – | –
2 | COCC(=O)Nc1cc(COc2ccc(NC(=O)Nc3cc(C(C)(C)C)nn3-c3ccc(C)cc3)c3ccccc23)ccn1 [Ref. 1, N-(4-((4-(3-(3-tert-butyl-1-p-tolyl-1H-pyrazol-5-yl)ureido)naphthalen-1-yloxy)methyl)pyridin-2-yl)-2-methoxyacetamide, reference compound] | – | – | – | 0.9 | 92 | − ^d (− and + indicate the result is below and above the no significant effect threshold, respectively (<30% inhibition at a concentration of 1 μg/ml)) | − ^d (− and + indicate the result is below and above the no significant effect threshold, respectively (<30% inhibition at a concentration of 1 μg/ml)) | 96 | 618 | 2.3 | – | – | – | –
3 | Cc1ccc(-n2nc(C(C)(C)C)cc2NC(=O)Nc2ccc(Oc3ccnc4[nH]c(=O)cnc34)c3ccccc23)s1 [Example 21] | − (− and + indicate the result is below and above the no significant effect threshold, respectively (<30% inhibition at a concentration of 1 μg/ml)) | − (− and + indicate the result is below and above the no significant effect threshold, respectively (<30% inhibition at a concentration of 1 μg/ml)) | – | 7.1 | – | – | – | – | – | – | 3.3 | 80 | 11 | –
4 | CC(C)(C)c1cc(NC(=O)Nc2ccc(Oc3ccnc4[nH]c(=O)cnc34)c3ccccc23)n(-c2ccc(Cl)c(Cl)c2)n1 [Example 32, 1-(3-(tert-butyl)-1-(3,4-dichlorophenyl)-1H-pyrazol-5-yl)-3-(4-((3-oxo-3,4-dihydropyrido[2,3-b]pyrazin-8-yl)oxy)naphthalen-1-yl)urea] | − (− and + indicate the result is below and above the no significant effect threshold, respectively (<30% inhibition at a concentration of 1 μg/ml)) | − (− and + indicate the result is below and above the no significant effect threshold, respectively (<30% inhibition at a concentration of 1 μg/ml)) | – | 5.5 | – | – | – | – | – | – | 7 | 80 | 8.8 | 10
5 | Cc1ccc(-n2nc(C(C)C)cc2NC(=O)Nc2ccc(Oc3ccnc4[nH]c(=O)cnc34)c3ccccc23)cc1 [Example 30, 1-(3-isopropyl-1-(p-tolyl)-1H-pyrazol-5-yl)-3-(4-((3-oxo-3,4-dihydropyrido[2,3-b]pyrazin-8-yl)oxy)naphthalen-1-yl)urea] | − (− and + indicate the result is below and above the no significant effect threshold, respectively (<30% inhibition at a concentration of 1 μg/ml)) | − (− and + indicate the result is below and above the no significant effect threshold, respectively (<30% inhibition at a concentration of 1 μg/ml)) | – | 1.1 | – | – | – | – | – | – | 4.3 | 36 | 34 | 27

From patent publication US8933228B2, “Respiratory formulations and compounds for use therein” (Respivert, Ltd., priority 2010, dated 2015)
